Among the data in PubChem BioAssay AID1053152 (Broad Institute, 2014) are fold induction values, retold here.

As a reminder, the fold induction is the signal under treatment as a multiple of the control signal.

The subject of this assay is HepG2 TRIB1 mRNA expression, RT-qPCR, 6 h. Description: gene expression changes with sterol depletion – cell-based, HepG2, RT-PCR, cherry-pick, mechanism study for Trib1 inducer project, late-stage follow-up (AID 1053152). As to conditions: active compounds read high.

With `CN1C(=O)c2cc(NC(=O)c3ccc(C(F)(F)F)cc3)ccc2OC[C@@H]2O[C@H](CC(=O)NC3Cc4ccccc4C3)CC[C@@H]21`, the fold induction is 2.5.
